According to patent US20250281485A1, “DIAGNOSIS AND/OR TREATMENT OF HEART FAILURE WITH PRESERVED EJECTION FRACTION” (UNIVERSITEIT MAASTRICHT, priority 2022, published 2025):
Where two headings read alike, the source gives them in different places. One block for each molecule: values may come before it.

How the values were obtained:
[1] = target: T1, sGC (Homo sapiens, UniProt Q02108+Q02153); test: pVASP/VASP concentration response in fresh P-WBC, sGC stimulator; type: cell-based
T1 construct: P-WBC is isolated after a 800g centrifugation and treated with sGCs or sGCa; endogenous in cells; host or cells: fresh human platelet-enriched white-blood-cell fraction (P-WBC) from healthy volunteers
T1 sequence (Q02153 1-619): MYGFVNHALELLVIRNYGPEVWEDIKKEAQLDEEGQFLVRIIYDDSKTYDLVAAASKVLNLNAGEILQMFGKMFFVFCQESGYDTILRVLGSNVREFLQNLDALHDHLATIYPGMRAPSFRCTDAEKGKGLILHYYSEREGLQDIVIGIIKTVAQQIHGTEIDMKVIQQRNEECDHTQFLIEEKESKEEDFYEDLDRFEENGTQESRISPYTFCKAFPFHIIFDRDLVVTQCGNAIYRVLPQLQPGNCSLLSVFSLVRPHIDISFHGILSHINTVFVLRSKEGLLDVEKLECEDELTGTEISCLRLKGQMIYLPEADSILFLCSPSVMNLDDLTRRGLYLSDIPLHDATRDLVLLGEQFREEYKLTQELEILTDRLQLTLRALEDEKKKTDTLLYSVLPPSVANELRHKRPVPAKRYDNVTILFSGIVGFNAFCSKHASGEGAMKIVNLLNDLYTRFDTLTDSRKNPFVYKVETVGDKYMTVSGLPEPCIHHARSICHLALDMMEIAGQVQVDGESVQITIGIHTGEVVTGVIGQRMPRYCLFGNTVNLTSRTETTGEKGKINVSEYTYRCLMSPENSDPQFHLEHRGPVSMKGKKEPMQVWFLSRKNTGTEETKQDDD
T1 sequence (Q02108 1-690): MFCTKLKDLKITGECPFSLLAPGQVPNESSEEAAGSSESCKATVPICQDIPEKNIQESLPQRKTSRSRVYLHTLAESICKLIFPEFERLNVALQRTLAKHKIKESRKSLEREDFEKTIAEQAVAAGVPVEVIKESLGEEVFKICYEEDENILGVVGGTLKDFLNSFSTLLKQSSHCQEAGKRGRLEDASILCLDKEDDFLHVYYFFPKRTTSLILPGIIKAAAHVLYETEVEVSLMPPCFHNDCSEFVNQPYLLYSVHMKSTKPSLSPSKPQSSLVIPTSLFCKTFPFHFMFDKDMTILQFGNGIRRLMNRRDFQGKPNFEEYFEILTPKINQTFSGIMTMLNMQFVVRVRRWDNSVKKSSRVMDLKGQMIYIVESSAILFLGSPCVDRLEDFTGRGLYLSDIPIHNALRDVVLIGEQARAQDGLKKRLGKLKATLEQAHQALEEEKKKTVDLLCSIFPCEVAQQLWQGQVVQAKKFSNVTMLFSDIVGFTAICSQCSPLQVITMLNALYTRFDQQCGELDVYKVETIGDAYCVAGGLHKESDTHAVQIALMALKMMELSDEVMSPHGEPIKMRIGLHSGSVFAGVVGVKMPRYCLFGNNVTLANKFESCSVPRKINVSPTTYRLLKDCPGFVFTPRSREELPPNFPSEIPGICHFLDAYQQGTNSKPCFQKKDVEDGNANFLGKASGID
Method: (§1) Human blood was collected from healthy volunteers after obtaining informed consent according to the Declaration of Helsinki. An ethical approval was granted by the FHML Research Ethics Committee of Maastricht University (FHML-REC/2022/055). Whole blood (WB) was collected by venipuncture in ACD-A tubes (sodium citrate: 22.0 g/L, dextrose 24.5 g/L, citric acid: 8.0 g/L). Centrifugations in various speeds (200 g, 400g, 600g, 800g) were performed for 10 minutes in 18 degrees Celsius (acceleration 1, deceleration 0). Plasma was collected and P-WBC was carefully isolated (500 μl). Cell counting was performed with the automated haematology analyzer Sysmex XP-300. Subsequently, P-WBC was diluted with the same volume of JNL-buffer (130 mM NaCl, 3 mM KCl, 9 mM NaHCO3, 0.81 mM KH2PO4, 0.9 mM MgCI2, 10 mM sodium citrate, 6 mM dextrose, 10 mM Tris base, 2 mM HEPES) pH 7.4. Thereafter, 20 μl of diluted P-WBC were further diluted 1:5 with JNL-buffer for the cell treatments. Cell suspensions were treated with BAY 41-2272 (30 μM) and BAY 58-2667 (10 μM) for 10 minutes at 37° C., and with riociguat and runcaciguat for 15 minutes; in some cases with 10 minutes pretreatment with IBMX. Samples were centrifuged for 10 minutes at 750 g. […]
(§2) All data are expressed as mean±standard error of mean (SEM) of at least three independent experiments. […]

[2] = tested on: HFpEF patients; conditions: JAMA 2020; cited from earlier work
[3] = tested on: HFpEF patients; conditions: JAMA 2013; cited from earlier work
[4] = tested on: HFpEF patients; conditions: JAMA 2020; cited from earlier work; remark: listed apart in the source
[5] = target: T2, apo-sGC (Homo sapiens, UniProt Q02108+Q02153); test: pVASP/VASP concentration response in fresh P-WBC, sGC activator; type: cell-based
T2 construct: P-WBC is isolated after a 800g centrifugation and treated with sGCs or sGCa; endogenous in cells; host or cells: fresh human platelet-enriched white-blood-cell fraction (P-WBC) from healthy volunteers
T2 sequence (Q02153 1-619): T1 sequence (Q02153 1-619)
T2 sequence (Q02108 1-690): T1 sequence (Q02108 1-690)
Method: as §1, §2

[6] = in the presence of 500 μM IBMX (FIG. 14D)

Compound: COC(=O)N(C)c1c(N)nc(-c2nn(Cc3ccccc3F)c3ncccc23)nc1N [riociguat, Methyl N-[4,6-Diamino-2-[1-[(2-fluorophenyl)methyl]-1H-pyrazolo[3,4-b]pyridin-3-yl]-5-pyrimidinyl]-N-methyl-carbaminate]
concentration at which pVASP response peaked [1, 6]: 100 μM
concentration of maximum effect, pVASP concentration response curve ([1]; without IBMX (FIG. 14B)): > 100 μM

Compound: OC(CNc1nc(-c2cc(-c3ccon3)n(Cc3ccccc3F)n2)ncc1F)(C(F)(F)F)C(F)(F)F [Praliciguat]
trial outcome [2]: failed

Compound: CCCc1nn(C)c2c(=O)[nH]c(-c3cc(S(=O)(=O)N4CCN(C)CC4)ccc3OCC)nc12 [sildenafil]
trial outcome [3]: failure

Compound: COC(=O)Nc1c(N)nc(-c2nn(Cc3ccccc3F)c3ncc(F)cc23)nc1N [vericiguat, methyl N-[4,6-diamino-2-[5-fluoro-1-[(2-fluorophenyl)methyl]pyrazolo[3,4-b]pyridin-3-yl]pyrimidin-5-yl]carbamate]
trial outcome [4]: failed

concentration at which pVASP response peaked [5, 6]: 1 μM
concentration of maximum effect, pVASP concentration response curve ([5]; without IBMX (FIG. 14B)): 100 μM
Compound: C[C@H]([C@H](C(=O)Nc1cc([C@@H](CC(=O)O)C2CC2)ccc1Cl)c1ccc(Cl)cc1)C(F)(F)F [runcaciguat]
